{"source": "patent US20060063842A1", "about": "“Hypogastric and/or perineal pain-relieving agent” (priority 2002, published 2006)", "test_system": "patients with lower urinary tract symptoms", "assay": "Clinical test (12 week study) to patients suffering from lower urinary tract symptoms: pain scores", "assay_type": "in vivo", "description": "Clinical Test (12 Week Study) to Patients Suffering from Lower Urinary Tract Symptoms A clinical study was conducted in patients with lower urinary tract symptoms under the conditions shown below. Subjects: Eighteen patients diagnosed to have urinary dysfunction without accompanying obvious organic or neurological abnormality in lower urinary tract. Study drug and the method of administration: Until Week 4, capsules each containing 0.2 mg tamsulosin hydrochloride were orally administered, one capsule/time/day, after breakfast. In Week 4, the doses for later than Week 4 were determined by referring to the Table below, and the doses determined were orally administered once daily after breakfast. <Criterion of Dose after 4 Weeks> [table] Study period: 12 weeks Observed items: Evaluations and measurements were made for the following items before and after the administration. (2) Pains The pain scores shown below were evaluated before administration, and 4 and 12 weeks after administration. <1> Hypogastric/perineal pain “How strong is hypogastric/perineal pain?” • 0: No pain • 1: Slightly painful • 2: Painful • 3: Quite painful • 4: Very painful <2> Lower backache “How strong is lower backache?” • 0: No pain • 1: Slightly painful • 2: Painful • 3: Quite painful • 4: Very painful", "note": "Counter-ions that a name gives are not always drawn.", "data": [{"compound": "CCOc1ccccc1OCCN[C@H](C)Cc1ccc(OC)c(S(N)(=O)=O)c1", "note": "[tamsulosin hydrochloride, (R)(−)-5-[2-[[2-(o-ethoxyphenoxy)ethyl]amino]propyl]-2-methoxybenzenesulfonamide]", "values": [{"measurement": "improvement of hypogastric/perineal pain or lower backache in patients with urinary dysfunction (overall conclusion)", "setting": "12 week clinical study, 18 patients, oral 0.2 or 0.4 mg/day", "value": "effective"}, {"measurement": "number of patients with hypogastric/perineal pain improved to score 0 (no pain)", "setting": "of 7 patients with score 1 (slightly painful) before administration, evaluation in Weeks 4 and 12, oral 0.2 or 0.4 mg/day once daily after breakfast", "value": 6, "unit": "patients"}, {"measurement": "number of patients with hypogastric/perineal pain unchanged (score 1, slightly painful)", "setting": "of 7 patients with score 1 before administration, evaluation in Weeks 4 and 12, oral 0.2 or 0.4 mg/day", "value": 1, "unit": "patient"}, {"measurement": "lower backache score after administration", "setting": "the only 1 patient with lower backache (score 1, slightly painful) before administration, evaluation in Weeks 4 and 12, oral 0.2 or 0.4 mg/day", "value": "improved to score 0 (no pain)"}]}]}
